Results as given in US8765770B2, “Substituted [1,2,4]triazolo[1,5-a]pyrimidines and their use as potassium channel modulators” (Ataxion, Inc., priority 2009, dated 2014).

Molecular target: T1, hSK1 channels (Homo sapiens, UniProt Q92952)
T1 construct: expressed in transfected cells; host or cells: HEK293
Assay: whole-cell patch-clamp recording of ionic current through SK channels (subtype 1) in HEK293 cells expressing hSK1
Type: cell-based
Settings: Stimulating Concentration required for increasing the baseline current by 100%
Experimental: The ionic current through small-conductance Ca^2+-activated K^+ channels (SK channels, subtype 1) is recorded using the whole-cell configuration of the patch-clamp technique in a classic patch-clamp set-up using HEK293 tissue culture cells expressing hSK1 channels as described in e.g. WO 2006/100212.
The SC100 value determined is defined as the Stimulating Concentration required for increasing the baseline current by 100%. The below SC100 values are an indication of the SK1 activating properties of the compounds of the invention.

CON=CNc1nc2nccc(C(C)Oc3ccccc3C)n2n1 (centres unmarked) [Example 1, N-{7-[1-(2-Methylphenoxy)ethyl]-[1,2,4]triazolo[1,5-a]pyrimidin-2-yl}-N′-methoxy-formamidine] gave an SC100 of 0.02 µM.

CON=CNc1nc2nccc(C(C)Oc3ccccc3)n2n1 (centres unmarked) [Example A, N-{7-[1-(Phenoxy)ethyl]-[1,2,4]triazolo[1,5-a]pyrimidin-2-yl}-N′-methoxy-formamidine] gave an SC100 of 0.20 µM.
